Measured values published in the NIST ThermoML archive (doi:10.1021/je034107o).
± gives the expanded uncertainty stated by the source.

Details: Liquid

| Compound | vapor or sublimation pressure (523.15 K) [kPa] | vapor or sublimation pressure (553.15 K) [kPa] | vapor or sublimation pressure (583.15 K) [kPa] | vapor or sublimation pressure (613.15 K) [kPa] | vapor or sublimation pressure (638.15 K) [kPa] | vapor or sublimation pressure (653.15 K) [kPa] | vapor or sublimation pressure (498.15 K) [kPa] |
| --- | --- | --- | --- | --- | --- | --- | --- |
| c1ccc2ncccc2c1 [quinoline] | 135 ± 8 | 245 ± 13 | 416 ± 22 | 668 ± 35 | 955 ± 49 | 1166 ± 60 | – |
| CCc1ccccc1 [ethylbenzene] | 1027 ± 54 | 1601 ± 83 | 2387 ± 120 | 3451 ± 180 | – | – | 681 ± 37 |
